# Measurements taken from patent publication US5457106A, “Pyridine derivatives, their production and use” (Takeda Chemical Industries, Ltd., priority 1991, dated 1995).
# pIC50: −log10 of the molar value. Counter-ions that a name gives are not always drawn.
# Columns and labels:
# [1] = system: Rat carrageenin pedal edema; experiment: Rat carrageenin pedal edema inhibitory activity; format: in vivo, rat (Jcl: SD); settings: 50 mg/kg, orally, 3 hours after carrageenin; for inhibition in vivo at 50 mg/kg: Rattus norvegicus, po, 3 h, read-out: Inhibitory percentage (carrageenin pedal edema)
# Protocol: Rat Carrageenin Pedal Edema Inhibitory Activity A Jcl: SD male rat (6 weeks old, weight 160-220 g) was used. After the mesurement of the volume of the dexter hind limb foot pad, a test compound suspended in 5% gum arabic solution was administered orally. Immediately after the administration, water was further administered orally so that the total administration volume of liquid became 5 ml/rat. After one hour, 0.05 ml of 1% carrageenin suspension in physiological saline was injected subcutaneously in the foot pad to induce edema [Winter, […]. and Nuss, G. W.: Proc. Soc. exp. […] Three hours after injection of carrageenin, the volume of the dexter limb was measured, and the edema volume was calculated by the difference between the volume after injection and the volume prior to injection.
# cyclooxygenase = molecular target: T1, cyclooxygenase (Rattus norvegicus, UniProt Q63921); experiment: Cyclooxygenase inhibitory activity (HHT formation from arachidonic acid in rat platelet-rich plasma); format: cell-based, rat (Jcl:wistar)
# T1 construct: from tissue; host or cells: platelets in platelet-rich plasma from rat abdominal aorta blood (Jcl:wistar, male)
# T1 sequence (Q63921 27-602): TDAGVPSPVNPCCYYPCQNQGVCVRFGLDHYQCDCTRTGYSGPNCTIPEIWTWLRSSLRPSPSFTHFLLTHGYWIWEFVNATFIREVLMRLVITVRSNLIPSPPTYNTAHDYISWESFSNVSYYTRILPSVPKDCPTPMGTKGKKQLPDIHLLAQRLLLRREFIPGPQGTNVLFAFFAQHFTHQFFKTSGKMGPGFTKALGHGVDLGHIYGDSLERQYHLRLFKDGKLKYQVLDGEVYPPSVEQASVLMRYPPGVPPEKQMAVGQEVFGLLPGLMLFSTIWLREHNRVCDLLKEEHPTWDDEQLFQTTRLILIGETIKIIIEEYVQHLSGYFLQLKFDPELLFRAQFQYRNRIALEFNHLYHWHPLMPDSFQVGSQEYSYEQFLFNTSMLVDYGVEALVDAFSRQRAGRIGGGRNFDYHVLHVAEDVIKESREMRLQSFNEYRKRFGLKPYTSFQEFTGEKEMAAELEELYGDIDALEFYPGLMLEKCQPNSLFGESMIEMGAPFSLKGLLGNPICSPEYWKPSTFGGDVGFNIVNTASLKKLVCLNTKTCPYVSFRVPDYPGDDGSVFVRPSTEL
# [2] = system: ART (antigen-responding T-cell); experiment: In vitro ART (antigen-responding T-cell) proliferation test; format: cell-based, Lewis rat; settings: for inhibition at 1 µM / inhibition at 10 µM: Rattus norvegicus, T-cell, read-out: % Inhibition of ART growth
# [3] = system: brewer's yeast induced pyrexia; experiment: Antipyretic activity (brewer's yeast induced pyrexia); format: in vivo, rat (DS line); settings: 50 mg/kg, orally; for Antipyretic activity, .increment. °C.: at peak time
# Protocol: Antipyretic Activity Six male DS line rats, 7 weeks old, weighing 200 to 240 g (Nihon Clea) per one group were used. According to the method of Winder et al. (J. Pharmac. Exp. Ther. 138: 405 (1963)), a suspension of 15% brewer's yeast (Sigma) in physiological saline (1 ml/100 g, b.w.) was injected subcutaneously at 16 hours before measurement of the body temperature to induce pyrexia. After injection of yeast, only water was provided, and each rat was bred separately in a five duplicate cage. At 16, 17 and 18 hours after yeast injection, the rectal temperature was measured by a thermistor thermometer (Takara Kogyo K.K.), and this was taken as the basal body temperature. […] Animals having the body temperature of not lower than 38.5° C. at 18 hours after yeast injection were selected, and a test compound was administered orally (1 ml/100 g, b.w.). As a control, only the solvent was provided. Upon administration, the body temperature of the control group and that of the test compound-administered group were adjusted to the same temperature. The rectal temperature was measured every hour till five hours after administration.
# [4] = system: Mouse phenylquinone writhing; experiment: Mouse phenylquinone writhing inhibitory activity; format: in vivo, mouse (Slc: ICR); settings: 50 mg/kg, orally; for inhibition in vivo at 50 mg/kg: Mus musculus, po, 20 min, read-out: Inhibitory percentage (phenylquinone writhing)
# Protocol: Mouse Phenylquinone Writhing Inhibitory Activity A Slc: ICR male mouse (4 weeks, weight 17 to 24 g) was used. A test compound suspended in 5% gum arabic solution was administered orally. After 30 minutes, 0.1 ml/10 g body weight of 0.02% phenylquinone solution in water (dissolved by the aid of 5% ethanol) was injected intraperitoneally, and writhing and stretching responses of individual animals were measured for 20 minutes [Siegmund, E., Cadmus, R. and Lu, G.; Proc. Soc. exp. Biol. Med. 95, (1957)].
Molecule,inhibition in vivo at 50 mg/kg [1] [%],pIC50 (cyclooxygenase),inhibition in vivo at 50 mg/kg [4] [%],also measured
4-(4-isobutyrylpiperidylthio)pyridine [Example 136],,,,Inhibitory percentage (carrageenin pedal edema) [1]: 33%
"O=C(/C=C/c1ccccc1)NCCCSc1ccncc1 [Example 28, 4-[3-(cinnamoylamino)propylthio]pyridine hydrochloride]",25,5.25,,
"O=C(NCCCSc1ccncc1)c1ccc(Cl)cc1 [Example 29, 4-[3-(4-chlorobenzoylamino)propylthio]pyridine hydrochloride]",25,,,
"Cc1ccc(C(=O)NCCCSc2ccncc2)cc1 [Example 31, 4-[3-(4-methylbenzoylamino)propylthio]pyridine]",32,5.34,,
"COc1cc(OC)cc(C(=O)NCCCSc2ccncc2)c1 [Example 33, 4-[3-(3,5-dimethoxybenzoylamino)propylthio]pyridine]",37,5.55,,inhibition at 1 µM ([2]; 1 μM): 33%; inhibition at 10 µM ([2]; 10 μM): 46%
"O=C(NCCCSc1ccncc1)c1ccccc1 [Example 40, 4-[3-(benzoylamino)propylthio]pyridine]",,5.12,45,"Antipyretic activity, peak time [3]: 3 h; Antipyretic activity, .increment. °C. [3]: -2.00 °C"
"O=C1c2ccccc2C(=O)N1CSc1ccccn1 [Example 64, 2-(phthalimidomethylthio)pyridine]",,,56,"Antipyretic activity, peak time [3]: 3 h; Antipyretic activity, .increment. °C. [3]: -2.58 °C"
"CC(C)(C)C(=O)Nc1ncccc1CCN1C(=O)c2ccccc2C1=O.Cl [Example 71, 3-[2-(phthalimido)ethyl]-2-(pivaloylamino)pyridine hydrochloride]",,,55,"Antipyretic activity, peak time [3]: 2 h; Antipyretic activity, .increment. °C. [3]: -0.52 °C"
"CC(=O)N(CCCSc1ccncc1)Cc1ccccc1.Cl [Example 76, 4-[3-(N-benzyl-N-acetylamino)propylthio]pyridine hydrochloride]",,4.89,,% Inhibition of ART growth ([2]; 1 μM): 3%; % Inhibition of ART growth ([2]; 10 μM): 38%; Inhibitory percentage (phenylquinone writhing) [4]: 61%
"O=C(N(CCCSc1ccncc1)Cc1ccccn1)C(F)(F)F [Example 78, 4-[3-(N-2-pyridylmethyl-N-trifluoroacetylamino)propylthio] pyridine dihydrochloride]",,5.28,55,
"O=C(c1ccccc1)N(CCCSc1ccncc1)Cc1ccccn1 [Example 81, 4-[3-(N-2-pyridylmethyl-N-benzoylamino)propylthio]pyridine]",,5.17,,Inhibitory percentage (phenylquinone writhing) [4]: 75%
"O=C1c2ccccc2C(=O)N1CCCOc1ccncc1 [Example 83, 4-(3-phthalimidopropyloxy)pyridine]",,5.00,59,"Antipyretic activity, peak time [3]: 2 h; Antipyretic activity, .increment. °C. [3]: -0.82 °C"
"O=C1c2ccccc2C(=O)N1CCCCOc1ccncc1 [Example 84, 4-(4-phthalimidobutyloxy)pyridine]",,5.35,84,"Antipyretic activity, peak time [3]: 3 h; Antipyretic activity, .increment. °C. [3]: -0.97 °C"
"O=C(NCCCOc1ccncc1)c1cc2ccccc2s1 [Example 85, 4-[3-(thianaphtene-2-carbonylamino)propyloxy]pyridine]",,5.85,70,"Antipyretic activity, peak time [3]: 2 h; Antipyretic activity, .increment. °C. [3]: -1.00 °C"
CCCCCCCCCC(=O)NCCCOc1ccncc1 [Example 88],,5.92,41,
"O=C(NCCCOc1ccncc1)c1cccs1 [Example 89, 4-[3-(2-thenoylamino)propyloxy]pyridine]",,,62,"Antipyretic activity, peak time [3]: 3 h; Antipyretic activity, .increment. °C. [3]: -2.72 °C"

Molecule,inhibition in vivo at 50 mg/kg [1] [%],pIC50 (cyclooxygenase),inhibition in vivo at 50 mg/kg [4] [%],also measured
"Cl.O=C(c1ccccc1)N(CCCSc1ccncc1)Cc1cccs1 [Example 93, 4-[3-(N-(2-thienylmethyl)benzoylamino)propylthio]pyridine hydrochloride]",,5.20,,inhibition at 1 µM ([2]; 1 μM): 42%; inhibition at 10 µM ([2]; 10 μM): 11%; Inhibitory percentage (phenylquinone writhing) [4]: 41%
"O=C1c2ccccc2C(O)N1CSc1ccncc1 (stereo not drawn) [Example 97, 4-(3-hydroxyisoindolin-1-on-2-ylmethylthio)pyridine]",29,,,inhibition at 1 µM ([2]; 1 μM): 30%; inhibition at 10 µM ([2]; 10 μM): 31%
"O=C(NCCCOc1ccncc1)c1ccccc1CO [Example 100, 4-[3-(2-hydroxymethylbenzoyl)aminopropyloxy]pyridine]",22,5.10,,inhibition at 1 µM ([2]; 1 μM): 19%; inhibition at 10 µM ([2]; 10 μM): 32%
"O=C1c2ccccc2C(O)N1CCSc1ccncc1 (stereo not drawn) [Example 104, 4-[2-(3-hydroxyisoindolin-1-on-2-yl)ethylthio]pyridine]",21,5.11,,
"O=C1c2ccccc2CN1CCCSc1ccncc1 [Example 111, 4-[3-(isoindolin-1-on-2-yl)propylthio]pyridine]",,5.15,64,"inhibition at 1 µM ([2]; 1 μM): 30%; inhibition at 10 µM ([2]; 10 μM): -12%; Antipyretic activity, peak time [3]: 2 h; Antipyretic activity, .increment. °C. [3]: -0.68 °C"
"O=C(c1ccccc1)N(CCOc1ccncc1)Cc1ccccc1 [Example 118, 4-[2-(N-benzyl-N-benzoyl)aminoethyloxy]pyridine hydrochloride]",31,,,"% Inhibition of ART growth ([2]; 1 μM, hydrochloride): 8%; % Inhibition of ART growth ([2]; 10 μM, hydrochloride): 38%"
"O=C(NCCCCSc1ccncc1)c1ccccc1 [Example 127, 4-[4-(benzoylamino)butylthio]pyridine]",32,,,
"O=C(NCCCCSc1ccncc1)c1cccs1 [Example 129, 4-[4-(2-thenonylamino)butylthio]pyridine]",34,5.60,,
O=C(c1cccs1)N1CCC(Sc2ccncc2)CC1 [Example 132],45,,,
"O=C(NCSc1ccncc1)c1cccnc1 [Example 138, 4-(3-picolinoylaminomethylthio)pyridine]",25,,,
"O=C1CCC(=O)N1CCCCSc1ccncc1 [Example 143, 4-(4-succinimidobutylthio)pyridine]",27,,,
"CC(C)(CSc1ccncc1)CN1C(=O)c2ccccc2C1=O [Example 145, 4-(2,2-dimethyl-3-phthalimidopropylthio)pyridine]",22,,,inhibition at 1 µM ([2]; 1 μM): 17%; inhibition at 10 µM ([2]; 10 μM): -42%
"O=C1c2ccccc2CN1CCCCOc1ccncc1 [Example 156, 4-[4-(isoindolin-1-on-2-yl)butyloxy]pyridine]",32,5.54,,
"O=C1SC(=Cc2ccccc2)C(=O)N1CSc1ccncc1 [Example 159, 4-(5-benzylidene-2,4-thiazolidinedione)methylthiopyridine]",25,,,
"O=C1CSC(=S)N1CCCCSc1ccncc1 [Example 163, 4-(4-rhodaninebutylthio)pyridine]",29,,,inhibition at 10 µM ([2]; 10 μM): 99%
